We go through 17 compounds from patent publication US20250304559A1, “Ether-Linked Antiviral Compounds” (Pfizer Inc., priority 2021, published 2025).

Like-named read-outs stand apart in the source and are kept apart here.

One test has as its target T1, SARS-CoV-2 3CL protease (Severe acute respiratory syndrome coronavirus 2, UniProt P0DTD1).
T1 construct: measures the activity of full-length SARS-CoV-2 3CL protease
The test is described as follows: SARS-CoV-2 Coronavirus 3C Protease FRET Assay. Format: biochemical. To be noted: Morrison equation fit, 15 nM enzyme, 25 μM peptide substrate.

The test system of test [1] is SARS-CoV-2 (USA_WA1/2020). The experiment in a line: Antiviral Activity from SARS-CoV-2 Infection (cytopathic effect, Cell Titer-Glo). To be noted: VeroE6 cells enriched for hACE2, MOI 0.002, 3-day incubation, tested alone or with P-gp inhibitor CP-100356 2 μM (table does not say which), read-out: Geometric Mean EC50. Type of test: cell-based. On the technique in general: Cytopathic effects are the visible damage that an infection or toxin causes in cultured cells.

Where [2] appears, read: Examples 14-78 and 114 (second head of Table 2), read-out: Geometric Mean Ki (nM) IC50.
Where [3] appears, read: Severe acute respiratory syndrome coronavirus 2, Vero C1008, 72 h.

As a reminder, the Ki is a dissociation constant, usually derived from enzyme kinetics or from competition with a known ligand. A word on the EC50: it is the concentration giving half of the maximal effect. For the compound `CC(C)[C@H](NS(=O)(=O)C(F)(F)F)C(=O)N1C[C@H]2[C@@H]([C@H]1C(=O)N[C@@H](C[C@@H]1CC(O)NC1=O)C(=O)COc1ccc(F)cc1F)C2(C)C` (stereo partly drawn) [Example 54, (1R,2S,5S)-N-{(2S)-4-(2,4-difluorophenoxy)-1-[(3R)-5-hydroxy-2-oxopyrrolidin-3-yl]-3-oxobutan-2-yl}-6,6-dimethyl-3-[N-(trifluoromethanesulfonyl)-L-valyl]-3-azabicyclo[3.1.0]hexane-2-carboxamide], the Ki on SARS-CoV-2 3CL protease (setting [2]) stood at 11.3 nM. Also, in test [1] (setting [3]), the EC50 came out at 2250 nM.

On to `CC(C)[C@H](NS(C)(=O)=O)C(=O)N1CCC(C(F)(F)F)C[C@H]1C(=O)N[C@@H](C[C@@H]1CCNC1=O)C(=O)COc1ccc(F)cc1F` (single isomer, unassigned) [Example 71, (2R*,4S*)-N-{(2S)-4-(2,4-difluorophenoxy)-3-oxo-1-[(3S)-2-oxopyrrolidin-3-yl]butan-2-yl}-1-[N-(methanesulfonyl)-L-valyl]-4-(trifluoromethyl)piperidine-2-carboxamide, DIAST-1], for which, in test [1], the EC50 is 8310 nM.

Consider `Cn1nc(C(F)(F)F)cc1OCC(=O)[C@H](C[C@@H]1CCNC1=O)NC(=O)[C@@H]1[C@@H]2[C@H](CN1C(=O)[C@@H](NS(=O)(=O)C(F)(F)F)C(C)(C)C)C2(C)C` [Example 6, (1R,2S,5S)-6,6-dimethyl-N-{(2S)-4-{[1-methyl-3-(trifluoromethyl)-1H-pyrazol-5-yl]oxy}-3-oxo-1-[(3S)-2-oxopyrrolidin-3-yl]butan-2-yl}-3-{3-methyl-N-[(trifluoromethyl)sulfonyl]-L-valyl}-3-azabicyclo[3.1.0]hexane-2-carboxamide], for which the Ki on SARS-CoV-2 3CL protease (Examples 1-13, 60 minutes at 23° C., read-out: Geometric Mean Ki) worked out at 19.8 nM. In addition, the 50% effective concentration (EC50) in test [1] (setting [3]) stood at 735 nM.

As for `CC(C)(C)[C@H](NC(=O)C(F)(F)F)C(=O)N1C[C@H]2[C@@H]([C@H]1C(=O)N[C@@H](C[C@@H]1CCNC1=O)C(=O)COc1ccccc1)C2(C)C` [Example 20, (1R,2S,5S)-6,6-dimethyl-3-[3-methyl-N-(trifluoroacetyl)-L-valyl]-N-{(2S)-3-oxo-1-[(3S)-2-oxopyrrolidin-3-yl]-4-phenoxybutan-2-yl}-3-azabicyclo[3.1.0]hexane-2-carboxamide], the EC50 in test [1] (setting [3]) amounted to 14.7 nM.

For `CCc1cc(OCC(=O)[C@H](C[C@@H]2CCNC2=O)NC(=O)[C@@H]2[C@@H]3[C@H](CN2C(=O)[C@@H](NC(=O)C(F)(F)F)C(C)C)C3(C)C)n(C)n1` [Example 45, (1R,2S,5S)-N-{(2S)-4-[(3-ethyl-1-methyl-1H-pyrazol-5-yl)oxy]-3-oxo-1-[(3S)-2-oxopyrrolidin-3-yl]butan-2-yl}-6,6-dimethyl-3-[N-(trifluoroacetyl)-L-valyl]-3-azabicyclo[3.1.0]hexane-2-carboxamide], the concentration for a half-maximal effect (EC50) in test [1] (setting [3]) worked out at 384 nM.

Consider `COC(=O)N[C@H](C(=O)N1C[C@H]2[C@@H]([C@H]1C(=O)N[C@@H](C[C@@H]1CCNC1=O)C(=O)COc1cc(C(F)(F)F)nn1C)C2(C)C)C(C)C` [Example 36, methyl {(2S)-1-[(1R,2S,5S)-6,6-dimethyl-2-({(2S)-4-{[1-methyl-3-(trifluoromethyl)-1H-pyrazol-5-yl]oxy}-3-oxo-1-[(3S)-2-oxopyrrolidin-3-yl]butan-2-yl}carbamoyl)-3-azabicyclo[3.1.0]hexan-3-yl]-3-methyl-1-oxobutan-2-yl}carbamate], for which the EC50 in test [1] (setting [3]) was found to be 256 nM.

With `CC(C)(C)[C@H](NS(=O)(=O)C(F)(F)F)C(=O)N1C[C@H]2[C@@H]([C@H]1C(=O)N[C@@H](C[C@@H]1CCNC1=O)C(=O)COc1ccc(F)c(F)c1)C2(C)C` [Example 114, (1R,2S,5S)-N-{(2S)-4-(3,4-difluorophenoxy)-3-oxo-1-[(3S)-2-oxopyrrolidin-3-yl]butan-2-yl}-6,6-dimethyl-3-[3-methyl-N-(trifluoromethanesulfonyl)-L-valyl]-3-azabicyclo[3.1.0]hexane-2-carboxamide], at SARS-CoV-2 3CL protease (setting [2]), the Ki was 2.53 nM.

`CCc1cc(OCC(=O)[C@H](C[C@@H]2CCNC2=O)NC(=O)[C@@H]2[C@@H]3[C@H](CN2C(=O)[C@@H](NC(=O)C(F)(F)F)C(C)(C)C)C3(C)C)n(C)n1` [Example 26, (1R,2S,5S)-N-{(2S)-4-[(3-ethyl-1-methyl-1H-pyrazol-5-yl)oxy]-3-oxo-1-[(3S)-2-oxopyrrolidin-3-yl]butan-2-yl}-6,6-dimethyl-3-[3-methyl-N-(trifluoroacetyl)-L-valyl]-3-azabicyclo[3.1.0]hexane-2-carboxamide]: the EC50 in test [1] (setting [3]) turned out to be 171 nM.

Turning to `CC(C)[C@H](NC(=O)C(F)(F)F)C(=O)N1C[C@H]2[C@@H]([C@H]1C(=O)N[C@@H](C[C@@H]1CCNC1=O)C(=O)COc1ccc(F)nc1)C2(C)C` [Example 31, (1R,2S,5S)-N-{(2S)-4-[(6-fluoropyridin-3-yl)oxy]-3-oxo-1-[(3S)-2-oxopyrrolidin-3-yl]butan-2-yl}-6,6-dimethyl-3-[N-(trifluoroacetyl)-L-valyl]-3-azabicyclo[3.1.0]hexane-2-carboxamide], the EC50 in test [1] (setting [3]) turned out to be 167 nM.

On to `Cc1ccc(OCC(=O)[C@H](C[C@@H]2CCNC2=O)NC(=O)[C@@H]2[C@@H]3[C@H](CN2C(=O)[C@@H](NC(=O)C(F)(F)F)C(C)C)C3(C)C)cn1` [Example 18, (1R,2S,5S)-6,6-dimethyl-N-{(2S)-4-[(6-methylpyridin-3-yl)oxy]-3-oxo-1-[(3S)-2-oxopyrrolidin-3-yl]butan-2-yl}-3-[N-(trifluoroacetyl)-L-valyl]-3-azabicyclo[3.1.0]hexane-2-carboxamide], for which the EC50 in test [1] (setting [3]) was found to be 114 nM.

`CC(C)[C@H](NC(=O)C(F)(F)F)C(=O)N1C[C@H]2[C@@H]([C@H]1C(=O)N[C@@H](C[C@@H]1CCNC1=O)C(=O)COc1nnc(C(C)(C)C)n1C)C2(C)C` [Example 78, (1R,2S,5S)-N-{(2S)-4-[(5-tert-butyl-4-methyl-4H-1,2,4-triazol-3-yl)oxy]-3-oxo-1-[(3S)-2-oxopyrrolidin-3-yl]butan-2-yl}-6,6-dimethyl-3-[N-(trifluoroacetyl)-L-valyl]-3-azabicyclo[3.1.0]hexane-2-carboxamide]: in test [1] (setting [3]), the EC50 was found to be 7370 nM.

Regarding `CCn1nc(C)cc1OCC(=O)[C@H](C[C@@H]1CCNC1=O)NC(=O)[C@@H]1[C@@H]2[C@H](CN1C(=O)[C@@H](NC(=O)C(F)(F)F)C(C)C)C2(C)C` [Example 43, (1R,2S,5S)-N-{(2S)-4-[(1-ethyl-3-methyl-1H-pyrazol-5-yl)oxy]-3-oxo-1-[(3S)-2-oxopyrrolidin-3-yl]butan-2-yl}-6,6-dimethyl-3-[N-(trifluoroacetyl)-L-valyl]-3-azabicyclo[3.1.0]hexane-2-carboxamide], the EC50 in test [1] (setting [3]) came out at 642 nM.

For `Cc1ccc(OCC(=O)[C@H](C[C@@H]2CCNC2=O)NC(=O)[C@@H]2[C@@H]3[C@H](CN2C(=O)[C@@H](NC(=O)C(F)(F)F)C(C)(C)C)C3(C)C)cn1` [Example 19, (1R,2S,5S)-6,6-dimethyl-N-{(2S)-4-[(6-methylpyridin-3-yl)oxy]-3-oxo-1-[(3S)-2-oxopyrrolidin-3-yl]butan-2-yl}-3-[3-methyl-N-(trifluoroacetyl)-L-valyl]-3-azabicyclo[3.1.0]hexane-2-carboxamide], in test [1] (setting [3]), the EC50 was 37.2 nM.

Turning to `COCC(=O)[C@H](C[C@@H]1CCNC1=O)NC(=O)[C@@H]1CC(C(C)(C)C)CCN1C(=O)[C@@H](NS(=O)(=O)C(F)(F)F)C(C)C` (single isomer, unassigned) [Example 15, (2R*,4S*)-4-tert-butyl-N-{(2S)-4-methoxy-3-oxo-1-[(3S)-2-oxopyrrolidin-3-yl]butan-2-yl}-1-[N-(trifluoromethanesulfonyl)-L-valyl]piperidine-2-carboxamide, DIAST-1], the EC50 in test [1] (setting [3]) was determined as 272 nM.

`CCc1cc(OCC(=O)[C@H](C[C@@H]2CCNC2=O)NC(=O)[C@@H]2[C@@H]3[C@H](CN2C(=O)[C@@H](NC(=O)OC)C(C)(C)C)C3(C)C)n(C)n1` [Example 37, methyl {(2S)-1-[(1R,2S,5S)-2-({(2S)-4-[(3-ethyl-1-methyl-1H-pyrazol-5-yl)oxy]-3-oxo-1-[(3S)-2-oxopyrrolidin-3-yl]butan-2-yl}carbamoyl)-6,6-dimethyl-3-azabicyclo[3.1.0]hexan-3-yl]-3,3-dimethyl-1-oxobutan-2-yl}carbamate]: the 50% effective concentration (EC50) in test [1] (setting [3]) came to 900 nM.

In the case of `CC(C)[C@H](NS(C)(=O)=O)C(=O)N1CCC(C(F)(F)F)C[C@H]1C(=O)N[C@@H](C[C@@H]1CCNC1=O)C(=O)COc1ccc(F)cc1F` (single isomer, unassigned) [Example 41, (2R*,4S*)-N-{(2S)-4-(2,4-difluorophenoxy)-3-oxo-1-[(3S)-2-oxopyrrolidin-3-yl]butan-2-yl}-1-[N-(methanesulfonyl)-L-valyl]-4-(trifluoromethyl)piperidine-2-carboxamide, DIAST-2], in test [1], the EC50 was found to be 224 nM.

On to `Cc1nsnc1OCC(=O)[C@H](C[C@@H]1CCNC1=O)NC(=O)[C@@H]1[C@@H]2[C@H](CN1C(=O)[C@@H](NC(=O)C(F)(F)F)C(C)C)C2(C)C` [Example 46, (1R,2S,5S)-6,6-dimethyl-N-{(2S)-4-[(4-methyl-1,2,5-thiadiazol-3-yl)oxy]-3-oxo-1-[(3S)-2-oxopyrrolidin-3-yl]butan-2-yl}-3-[N-(trifluoroacetyl)-L-valyl]-3-azabicyclo[3.1.0]hexane-2-carboxamide], for which the inhibition constant Ki on SARS-CoV-2 3CL protease (setting [2]) was found to be 8.21 nM.
